Patent US20240051985A1, “METTL3 MODULATORS” (ACCENT THERAPEUTICS, INC., priority 2020, published 2024)

Target: METTL3/METTL14 (Homo sapiens, UniProt Q86U44)
Assay: METTL3-14 standard enzyme assay (3H-SAM flashplate)
Conditions: Table 3; METTL3 biochemical assay
Method: METTL3-14 Standard Enzyme Assay
Assays were performed in a 25 μl-volume in 384-well V-bottom polypropylene microplates (Greiner Bio-One, cat. No. 781280) at ambient temperature. Optimized 1× assay buffer was 20 mM HEPES pH 7.5, 50 mM KCl, 250 μM MgCl2, 1 mM DTT, 0.01% Tween, 0.01% BSG, 0.004 U/μl RNAseOUT (cat. No. 10777019, ThermoFisher Scientific, Waltham, MA). For compound screening METTL3/METTL14 (final concentration, f.c.=2.5 nM) was added using a Multidrop Combi (ThermoFisher Scientific, Waltham, MA) and preincubated for 5 min. Reactions were started by adding 3′ biotinylated RNA (UCUGGACUAAA-biotin) (f.c.=100 nM) and 3H-SAM (f.c.=100 nM) substrates. Reactions proceeded for 30 minutes and were quenched with excess non-radioactive SAM (f.c.=15 μM). The reactions were then transferred to streptavidin-coated flashplates and incubated for 2 hours at 25° C. Following two washing cycles with 0.1% Tween-20, the plates were sealed and read on a TopCount (PerkinElmer, Waltham, MA) plate-based scintillation counter. For determination of kinetic parameters, reaction times were optimized so that measurements were taken during the initial velocity phase of the reaction.

Sequence of METTL3/METTL14 (Q86U44 whole entry, species assumed): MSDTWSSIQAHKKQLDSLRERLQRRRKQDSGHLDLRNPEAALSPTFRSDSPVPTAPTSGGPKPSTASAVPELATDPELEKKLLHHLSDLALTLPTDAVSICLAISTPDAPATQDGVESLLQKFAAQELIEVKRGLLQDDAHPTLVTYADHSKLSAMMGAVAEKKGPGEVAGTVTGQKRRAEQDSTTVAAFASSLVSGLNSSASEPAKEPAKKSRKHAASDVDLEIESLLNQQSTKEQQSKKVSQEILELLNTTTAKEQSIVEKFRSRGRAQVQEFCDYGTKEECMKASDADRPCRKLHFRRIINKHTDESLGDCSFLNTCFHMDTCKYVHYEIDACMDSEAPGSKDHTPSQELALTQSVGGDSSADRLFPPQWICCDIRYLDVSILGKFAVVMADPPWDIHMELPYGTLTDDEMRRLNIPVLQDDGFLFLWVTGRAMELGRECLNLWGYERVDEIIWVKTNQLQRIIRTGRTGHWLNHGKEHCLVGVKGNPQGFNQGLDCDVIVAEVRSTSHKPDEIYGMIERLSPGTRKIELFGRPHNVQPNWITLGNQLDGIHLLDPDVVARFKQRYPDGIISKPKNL
Sequence of METTL3/METTL14 (Q9HCE5 whole entry partner, species assumed): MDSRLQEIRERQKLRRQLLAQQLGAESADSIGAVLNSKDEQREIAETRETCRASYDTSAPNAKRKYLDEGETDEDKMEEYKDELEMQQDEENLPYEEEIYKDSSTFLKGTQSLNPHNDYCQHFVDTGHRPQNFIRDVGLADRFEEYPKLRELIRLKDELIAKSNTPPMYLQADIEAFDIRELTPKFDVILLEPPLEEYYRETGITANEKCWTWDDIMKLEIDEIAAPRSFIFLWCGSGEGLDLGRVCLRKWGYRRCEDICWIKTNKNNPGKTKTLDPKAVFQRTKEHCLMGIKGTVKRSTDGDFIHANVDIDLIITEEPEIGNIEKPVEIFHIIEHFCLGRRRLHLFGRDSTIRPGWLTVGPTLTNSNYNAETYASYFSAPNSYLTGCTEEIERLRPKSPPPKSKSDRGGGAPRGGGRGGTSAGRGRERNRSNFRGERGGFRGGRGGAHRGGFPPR

IC50 | Structure (SMILES)
< 10 nM | Nc1ncnc2c1c(-n1cccn1)cn2[C@H]1C[C@H](O)[C@@H](C(=O)Nc2ccc3ccc(NC4CCC4)nc3c2)O1 [Compound I-16]

Same assay, conditions: Table 4; METTL3 biochemical assay

IC50 | Structure (SMILES)
100 to 1000 nM | CN1CCN(c2ccc(NC(=O)[C@H]3O[C@@H](n4cc(-c5ccn(C)n5)c5c(N)ncnc54)[C@H](O)[C@@H]3O)nc2)CC1 [Compound I-127]
100 to 1000 nM | CC(=O)Nc1ccccc1NC(=O)[C@H]1O[C@@H](n2cc(-c3ccn(C)n3)c3c(N)ncnc32)[C@H](O)[C@@H]1O [Compound I-130]
≥ 1000 nM | Cn1ccc(-c2cn([C@@H]3O[C@H](C(=O)NCCN4CCOCC4)[C@@H](O)[C@H]3O)c3ncnc(N)c23)n1 [Compound I-65]
100 to 1000 nM | Cn1ccc(-c2cn([C@@H]3O[C@H](C(=O)Nc4ccnn4C)[C@@H](O)[C@H]3O)c3ncnc(N)c23)n1 [Compound I-109]
100 to 1000 nM | Cn1cc(NC(=O)[C@H]2O[C@@H](n3cc(-c4ccn(C)n4)c4c(N)ncnc43)[C@H](O)[C@@H]2O)cn1 [Compound I-104]
100 to 1000 nM | Cn1ccc(-c2cn([C@@H]3O[C@H](C(=O)Nc4ccc(CN5CCS(=O)(=O)CC5)cc4)[C@@H](O)[C@H]3O)c3ncnc(N)c23)n1 [Compound I-125]
10 to 100 nM | Cc1nc2cc(NC(=O)[C@H]3O[C@@H](n4cc(-c5ccn(C)n5)c5c(N)ncnc54)[C@H](O)[C@@H]3O)ccc2o1 [Compound I-141]
100 to 1000 nM | Cc1cc(CNC(=O)[C@H]2O[C@@H](n3cc(-c4ccn(C)n4)c4c(N)ncnc43)[C@H](O)[C@@H]2O)no1 [Compound I-106]
≥ 1000 nM | Cn1ccc(-c2cn([C@@H]3O[C@H](C(=O)Nc4cccc5cnccc45)[C@@H](O)[C@H]3O)c3ncnc(N)c23)n1 [Compound I-69]
100 to 1000 nM | CC(CNC(=O)[C@H]1O[C@@H](n2cc(-c3ccn(C)n3)c3c(N)ncnc32)[C@H](O)[C@@H]1O)c1ccccc1 (stereo partly drawn) [Compound I-101]
≥ 1000 nM | Cc1ccc(Cl)c(NC(=O)[C@H]2O[C@@H](n3cc(-c4ccn(C)n4)c4c(N)ncnc43)[C@H](O)[C@@H]2O)c1 [Compound I-72]
≥ 1000 nM | Cc1cc(CNC(=O)[C@H]2O[C@@H](n3cc(-c4ccn(C)n4)c4c(N)ncnc43)[C@H](O)[C@@H]2O)ccc1F [Compound I-77]
≥ 1000 nM | Cn1ccc(-c2cn([C@@H]3O[C@H](C(=O)Nc4nccc5ccccc45)[C@@H](O)[C@H]3O)c3ncnc(N)c23)n1 [Compound I-78]
≥ 1000 nM | Cn1ccc(-c2cn([C@@H]3O[C@H](C(=O)Nc4nccs4)[C@@H](O)[C@H]3O)c3ncnc(N)c23)n1 [Compound I-82]
100 to 1000 nM | Cn1ccc(-c2cn([C@@H]3O[C@H](C(=O)Nc4ccc(OC(F)F)cc4)[C@@H](O)[C@H]3O)c3ncnc(N)c23)n1 [Compound I-132]
100 to 1000 nM | Cn1ccc(-c2cn([C@@H]3O[C@H](C(=O)NCCCN4CCCC4=O)[C@@H](O)[C@H]3O)c3ncnc(N)c23)n1 [Compound I-129]
100 to 1000 nM | Cn1ccc(-c2cn([C@@H]3O[C@H](C(=O)NC4CCC(O)CC4)[C@@H](O)[C@H]3O)c3ncnc(N)c23)n1 (stereo partly drawn) [Compound I-103]
≥ 1000 nM | Cn1ccc(-c2cn([C@@H]3O[C@H](C(=O)N[C@@H](CO)c4ccccc4)[C@@H](O)[C@H]3O)c3ncnc(N)c23)n1 [Compound I-88]
100 to 1000 nM | Cn1ccc(-c2cn([C@@H]3O[C@H](C(=O)NCCC4CCCCC4)[C@@H](O)[C@H]3O)c3ncnc(N)c23)n1 [Compound I-120]
≥ 1000 nM | Cc1cccnc1NC(=O)[C@H]1O[C@@H](n2cc(-c3ccn(C)n3)c3c(N)ncnc32)[C@H](O)[C@@H]1O [Compound I-93]
≥ 1000 nM | Cc1ccc2nc(NC(=O)[C@H]3O[C@@H](n4cc(-c5ccn(C)n5)c5c(N)ncnc54)[C@H](O)[C@@H]3O)sc2c1 [Compound I-68]
100 to 1000 nM | Cn1ccc(-c2cn([C@@H]3O[C@H](C(=O)N4CCc5ccccc54)[C@@H](O)[C@H]3O)c3ncnc(N)c23)n1 [Compound I-99]
100 to 1000 nM | CC(CCc1ccccc1)NC(=O)[C@H]1O[C@@H](n2cc(-c3ccn(C)n3)c3c(N)ncnc32)[C@H](O)[C@@H]1O (stereo partly drawn) [Compound I-137]
